Values quoted from earlier work, collected in US20210353574A1, “Softgels with solid or gel-like polymeric fill matrix” (Bayer HealthCare LLC, priority 2018, published 2021).

Settings: used as an analgesic

Row | SMILES | minimum effective dose
1 | COc1ccc2cc([C@H](C)C(=O)O)ccc2c1 [Naproxen] | 200 mg
2 | COc1ccc2cc([C@H](C)C(=O)O)ccc2c1 [naproxen sodium] | 220 mg
